Paper PMC11671014 (PLOS Pathogens, 2024)
Where “and” joins values, the source holds several entries; their conditions need not be identical. Identical values can stand only once. Entries after “also recorded” stand apart in the source; their conditions may differ.

Experiments:
Type in all cases: biochemical
[1] = target: T1, SAE (SUMO-activating enzyme) (Homo sapiens, UniProt Q9UBT2); test: SAE E1-E2 transthiolation HTRF assay
T1 sequence (Q9UBT2 1-640): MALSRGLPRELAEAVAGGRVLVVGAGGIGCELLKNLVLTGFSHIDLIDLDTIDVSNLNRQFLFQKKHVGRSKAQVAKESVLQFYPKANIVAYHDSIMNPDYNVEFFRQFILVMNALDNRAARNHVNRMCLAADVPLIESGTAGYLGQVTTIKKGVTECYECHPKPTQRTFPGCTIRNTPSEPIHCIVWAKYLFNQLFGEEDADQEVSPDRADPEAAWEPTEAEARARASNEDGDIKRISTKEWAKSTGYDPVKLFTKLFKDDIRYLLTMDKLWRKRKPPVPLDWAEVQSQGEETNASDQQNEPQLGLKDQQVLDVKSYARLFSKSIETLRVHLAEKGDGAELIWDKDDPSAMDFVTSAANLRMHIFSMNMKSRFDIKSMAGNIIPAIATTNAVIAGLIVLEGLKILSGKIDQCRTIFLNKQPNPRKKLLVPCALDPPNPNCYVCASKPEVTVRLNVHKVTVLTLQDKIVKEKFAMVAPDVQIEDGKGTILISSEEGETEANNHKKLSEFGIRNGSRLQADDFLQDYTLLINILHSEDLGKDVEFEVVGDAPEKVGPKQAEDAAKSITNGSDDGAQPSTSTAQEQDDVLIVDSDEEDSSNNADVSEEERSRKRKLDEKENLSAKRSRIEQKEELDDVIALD
T1 sequence (Q9UBE0 1-346 partner): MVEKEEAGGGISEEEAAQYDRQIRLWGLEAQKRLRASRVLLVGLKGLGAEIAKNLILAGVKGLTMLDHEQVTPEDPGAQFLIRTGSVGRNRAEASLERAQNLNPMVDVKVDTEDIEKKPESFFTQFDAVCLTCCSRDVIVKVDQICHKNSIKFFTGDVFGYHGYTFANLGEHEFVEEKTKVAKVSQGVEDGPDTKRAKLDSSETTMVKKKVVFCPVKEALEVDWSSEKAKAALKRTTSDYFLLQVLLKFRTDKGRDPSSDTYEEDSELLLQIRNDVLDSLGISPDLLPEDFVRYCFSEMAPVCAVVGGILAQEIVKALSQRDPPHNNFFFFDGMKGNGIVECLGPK
Description: (§1) An Homogeneous Time-Resolved Fluorescence (HTRF) enzyme assay was employed to evaluate compound activity against ATG7 as previously described. In this assay, a Flag-tagged ATG8 homolog (GABA type A receptor-associated protein; GABARAP) is activated by ATG7 and then transthiolated to a GST-tagged E2 (ATG3). The product of the enzyme reaction, Flag-GABARAP-ATG3-GST, is quantified by measuring FRET between Europium-Cryptate labelled monoclonal anti-Flag M2 (FLAG M2-Eu cryptate; Revvity, Cat# 61FG2KLB) and […] (Anti-GST IgG conjugated to SureLight-Allophycocyanin) (Revvity, Cat# AD0059G)). The activation and transthiolation of ubiquitin by UAE, activation and transthiolation of NEDD8 by NAE and activation and transthiolation of SUMO by SAE were all assayed in a similar fashion with appropriately tagged ubiquitin-like proteins and E2 conjugating enzymes as described.

[2] = target: T2, UAE (ubiquitin activating enzyme) (Homo sapiens, UniProt P22314); test: UAE E1-E2 transthiolation HTRF assay
T2 sequence (P22314 1-1058): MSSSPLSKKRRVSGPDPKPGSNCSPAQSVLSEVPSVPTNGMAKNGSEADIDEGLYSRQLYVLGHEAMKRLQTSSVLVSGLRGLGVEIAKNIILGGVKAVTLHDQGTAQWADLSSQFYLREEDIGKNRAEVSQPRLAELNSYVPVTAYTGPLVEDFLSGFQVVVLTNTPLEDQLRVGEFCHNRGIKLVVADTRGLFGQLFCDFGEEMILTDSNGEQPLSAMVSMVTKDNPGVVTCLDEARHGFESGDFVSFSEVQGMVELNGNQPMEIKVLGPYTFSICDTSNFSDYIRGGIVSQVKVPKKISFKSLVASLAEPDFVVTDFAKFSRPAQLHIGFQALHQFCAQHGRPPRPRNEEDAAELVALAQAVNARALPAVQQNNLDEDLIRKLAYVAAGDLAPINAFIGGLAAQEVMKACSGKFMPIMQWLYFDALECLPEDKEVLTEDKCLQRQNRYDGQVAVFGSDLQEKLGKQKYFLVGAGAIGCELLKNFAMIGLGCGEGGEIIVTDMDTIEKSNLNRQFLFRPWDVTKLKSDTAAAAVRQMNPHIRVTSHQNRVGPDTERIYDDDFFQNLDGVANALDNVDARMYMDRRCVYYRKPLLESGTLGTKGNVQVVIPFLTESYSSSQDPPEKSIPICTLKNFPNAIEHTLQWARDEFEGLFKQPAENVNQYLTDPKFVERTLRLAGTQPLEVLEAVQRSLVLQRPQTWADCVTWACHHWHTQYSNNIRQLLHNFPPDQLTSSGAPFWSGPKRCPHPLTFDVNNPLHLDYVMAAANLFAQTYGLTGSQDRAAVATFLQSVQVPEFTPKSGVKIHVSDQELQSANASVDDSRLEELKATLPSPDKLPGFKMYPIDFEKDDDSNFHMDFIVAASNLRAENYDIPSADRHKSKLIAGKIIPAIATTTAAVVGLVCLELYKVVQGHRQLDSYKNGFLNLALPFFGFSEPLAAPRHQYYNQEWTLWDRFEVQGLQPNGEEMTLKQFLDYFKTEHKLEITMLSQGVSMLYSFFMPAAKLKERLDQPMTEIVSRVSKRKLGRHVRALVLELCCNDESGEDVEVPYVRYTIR
Description: as §1

[3] = target: PfTyrRS (Plasmodium falciparum, UniProt Q8IAR7); test: ATP consumption by PfTyrRS (Kinase Glo); settings: PfTyrRS 25 nM, ATP 10 μM, tyrosine 200 μM, cognate tRNA^Tyr 4.8 μM, 37°C 1 h; read-out: Inhibition of PfTyrRS (Kinase Glo) IC50
Sequence of PfTyrRS (Q8IAR7 entry or part of it): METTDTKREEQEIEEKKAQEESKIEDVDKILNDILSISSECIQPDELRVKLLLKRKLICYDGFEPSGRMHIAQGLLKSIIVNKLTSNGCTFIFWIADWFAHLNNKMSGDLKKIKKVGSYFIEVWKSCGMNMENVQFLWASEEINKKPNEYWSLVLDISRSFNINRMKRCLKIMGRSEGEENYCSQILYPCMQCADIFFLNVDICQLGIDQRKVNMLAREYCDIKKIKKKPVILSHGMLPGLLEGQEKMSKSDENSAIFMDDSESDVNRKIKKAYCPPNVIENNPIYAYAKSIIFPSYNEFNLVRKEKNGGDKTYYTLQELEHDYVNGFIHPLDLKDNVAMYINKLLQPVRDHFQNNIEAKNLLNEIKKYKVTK
Procedure: Consumption of ATP was measured using a luciferase-based assay as per the manufacturer’s instructions (Kinase-Glo Luminescent Kinase Assay, Promega).

| Compound | IC50 [1] [µM] | IC50 [2] [µM] | IC50 [3] | activity against SAE (in words) [1] | activity against UAE (in words) ([2]; human UAE in vitro) |
| --- | --- | --- | --- | --- | --- |
| CCc1nn([C@@H]2O[C@H](COS(N)(=O)=O)[C@@H](O)[C@H]2O)c2ncnc(N)c12 [ML681] | 22.4 ± 3.1 | 8.7 ± 0.6 | 23 ± 8 µM |  |  |
| Nc1ncnc2c1c(OC(F)F)nn2[C@@H]1O[C@H](COS(N)(=O)=O)[C@@H](O)[C@H]1O [ML901] | > 100 | 5.39 ± 0.16 | 13.4 µM and 13 µM | no activity |  |
| CC(C)c1nn([C@@H]2O[C@H](COS(N)(=O)=O)[C@@H](O)[C@H]2O)c2ncnc(N)c12 [ML471, ((2R,3S,4R,5R)-5-(4-amino-3-isopropyl-1H-pyrazolo[3,4-d]pyrimidin-1-yl)-3,4-dihydroxytetrahydrofuran-2-yl)methyl sulfamate] | > 100 | 85.7 ± 6.5 | 1.4 ± 0.2 µM | no or very little activity | no inhibitory activity; also recorded: no or very little activity |
| CCOc1nn([C@@H]2O[C@H](COS(N)(=O)=O)[C@@H](O)[C@H]2O)c2ncnc(N)c12 [ML676] | 31.4 ± 5.7 | 73.4 ± 3.5 |  |  |  |
| Nc1ncnc2c1c(C(F)(F)F)nn2[C@@H]1O[C@H](COS(N)(=O)=O)[C@@H](O)[C@H]1O [ML107] | 78.5 ± 6.2 | 22.9 ± 0.7 | 24 ± 5 µM |  |  |
| Nc1ncnc2c1c(Oc1ccccc1)nn2[C@@H]1O[C@H](COS(N)(=O)=O)[C@@H](O)[C@H]1O [ML470] | > 100 | > 100 | 41 ± 23 µM |  |  |
| CC(C)Oc1nn([C@@H]2O[C@H](COS(N)(=O)=O)[C@@H](O)[C@H]2O)c2ncnc(N)c12 [ML723] | > 100 | > 100 | 14 ± 5 µM |  |  |
